What was measured:
Type in all cases: in vivo
[1] = test system: Hordeum murinum (HORMU); assay: Post-emergence herbicidal action, greenhouse pot test; conditions: rated visually after about 3 weeks vs untreated controls, 100% = plants have died
Method in brief: (§1)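 Activity was scored by eye about 3 weeks after treatment against untreated plants, where 100% means dead plants and 0% means no difference. Plants at the one-leaf stage received a foliar spray of WP or EC formulations in water plus 0.5% additive (600 l/ha, up to 20 g/ha). Plants were grown in sandy loam pots in a greenhouse for 2–3 weeks before spraying.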

[2] = test system: Veronica persica (VERPE); assay: as above
Method in brief: as §1

[3] = test system: Amaranthus retroflexus (AMARE); assay: as above; conditions: rated visually after about 3 weeks vs untreated controls, 100% = plants have died
Method in brief: as §1

[4] = test system: Pharbitis purpurea (PHBPU); assay: as above
Method in brief: as §1

[5] = test system: Abutilon theophrasti (ABUTH); assay: as above; conditions: rated visually after about 3 weeks vs untreated controls, 100% = plants have died
Method in brief: as §1

[6] = test system: Avena fatua (AVEFA); assay: as above; conditions: 20 g/ha, rated visually after about 3 weeks vs untreated controls, 100% = plants have died
Method in brief: as §1

[7] = test system: Stellaria media (STEME); assay: as above
Method in brief: as §1

[8] = test system: Viola tricolor (VIOTR); assay: as above
Method in brief: as §1

[9] = test system: Polygonum convolvulus (POLCO); assay: as above
Method in brief: as §1

[10] = test system: Zea mays (ZEAMX); assay: Post-emergence crop plant compatibility, greenhouse pot test; conditions: 1.25 g/ha, vs untreated controls
Method in brief: (§2)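 Compatibility was scored as visual % effect against untreated controls about 3 weeks after spraying green plant parts at the one-leaf stage. Formulations (WP/EC) were applied in aqueous form with 0.5% additive, 600 l/ha, to greenhouse-grown pot plants.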

[11] = test system: Brassica napus (BRSNW); assay: as above; conditions: 1.25 g/ha, vs untreated controls
Method in brief: as §2

[12] = test system: Triticum aestivum (TRZAS); assay: as above; conditions: vs untreated controls
Method in brief: as §2

[13] = test system: Matricaria inodora (MATIN); assay: Post-emergence herbicidal action, greenhouse pot test (also comparative test C)
Method in brief: (§3)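 Greenhouse pot plants in sandy loam were sprayed post-emergence at the one-leaf stage (2–3 weeks after sowing) with WP or EC formulations plus 0.5% additive at 600 l/ha water. Activity was rated visually after about 3 weeks versus untreated controls (100% = dead, 0% = like control); rates were 20 g/ha or less, and 5 g/ha or less in the comparative test.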

[14] = test system: Alopecurus myosuroides (ALOMY); assay: as above; conditions: rated visually after about 3 weeks vs untreated controls, 100% = plants have died
Method in brief: as §3

[15] = test system: Echinochloa crus-galli (ECHCG); assay: as above
Method in brief: as §3

[16] = test system: Setaria viridis (SETVI); assay: as above
Method in brief: as §3

Post-emergence action against ZEAMX (crop plant compatibility) [10]: 20%
Post-emergence action against BRSNW (crop plant compatibility) [11]: 20%
Post-emergence action against TRZAS (crop plant compatibility) ([12]; 1.25 g/ha): 10%
Post-emergence action against TRZAS (crop plant compatibility) ([12]; 5 g/ha): 20%
SMILES: Cn1c(C(F)(F)F)cc(=O)n(-c2cc(Sc3ccccc3OCC(=O)OCC3CCCO3)c(Cl)cc2F)c1=O (racemic) [I.1-71]
Post-emergence action at 5 g/ha against HORMU in % ([1]; 5 g/ha): 80%
Post-emergence action at 20 g/ha against HORMU in % ([1]; 20 g/ha): 90%
Post-emergence action against VERPE ([2]; 1.25 g/ha): 100%
Post-emergence action against VERPE ([2]; 5 g/ha): 100%
Post-emergence action against VERPE ([2]; 20 g/ha): 100%
Post-emergence action at 1.25 g/ha against AMARE in % ([3]; 1.25 g/ha): 100%
Post-emergence action at 5 g/ha against AMARE in % ([3]; 5 g/ha): 100%
Post-emergence action at 20 g/ha against AMARE in % ([3]; 20 g/ha): 100%
Post-emergence action against PHBPU in % ([4]; dosage 1.25 g/ha): 100%
Post-emergence action against PHBPU in % ([4]; dosage 5 g/ha): 100%
Post-emergence action against PHBPU in % ([4]; dosage 20 g/ha): 100%
Post-emergence action at 1.25 g/ha against ABUTH in % ([5]; 1.25 g/ha): 100%
Post-emergence action at 5 g/ha against ABUTH in % ([5]; 5 g/ha): 100%
Post-emergence action at 20 g/ha against ABUTH in % ([5]; 20 g/ha): 100%
Post-emergence action at 20 g/ha against AVEFA in % [6]: 80%
Post-emergence action against STEME ([7]; 1.25 g/ha): 90%
Post-emergence action against STEME ([7]; 5 g/ha): 100%
Post-emergence action against STEME ([7]; 20 g/ha): 100%
Post-emergence action against VIOTR ([8]; 1.25 g/ha): 100%
Post-emergence action against VIOTR ([8]; 5 g/ha): 100%
Post-emergence action against VIOTR ([8]; 20 g/ha): 100%
Post-emergence action against POLCO in % ([9]; dosage 1.25 g/ha): 100%
Post-emergence action against POLCO in % ([9]; dosage 5 g/ha): 100%
Post-emergence action against POLCO in % ([9]; dosage 20 g/ha): 100%
Post-emergence action against MATIN in % ([13]; dosage 1.25 g/ha): 80%
Post-emergence action against MATIN in % ([13]; dosage 5 g/ha): 90%
Post-emergence action against MATIN in % ([13]; dosage 20 g/ha): 100%
Post-emergence action at 5 g/ha against ALOMY in % ([14]; 5 g/ha): 80%
Post-emergence action at 20 g/ha against ALOMY in % ([14]; 20 g/ha): 90%
Post-emergence action at 1.25 g/ha against ECHCG in % ([15]; 1.25 g/ha, rated visually after about 3 weeks vs untreated controls, 100% = plants have died): 100%
Post-emergence action against ECHCG in % ([15]; dosage 20 g/ha): 100%
Post-emergence action against SETVI ([16]; 20 g/ha): 100%
Post-emergence action against SETVI in % ([16]; dosage 1.25 g/ha): 100%
Post-emergence action against SETVI in % ([16]; dosage 5 g/ha): 100%

Reference: patent US20240025862A1, “SUBSTITUTED N-PHENYLURACILS AND SALTS THEREOF, AND USE THEREOF AS HERBICIDAL ACTIVE SUBSTANCES” (Bayer Aktiengesellschaft, priority 2020, published 2024)
